The text below walks through data of ChEMBL document CHEMBL3745643, “Recent Advances in the Discovery of Norovirus Therapeutics” (J Med Chem, 2015).

Peptide text beside a SMILES is read from it. * marks the point of attachment. Pyrrolidide = C1CCN(*)C1; Cbz = O=C(OCc1ccccc1)*

A short description of assay [1]: Inhibition of Norovirus RNA dependent RNA polymerase by spectrophotometry.
Assay [2] in a line: Inhibition of Norovirus 3C-like protease by FRET assay.
For assay [3], the system named is Norovirus. The assay is described as follows: Antiviral activity against Norovirus infected in HuH7 cells assessed as decrease in viral RNA level after 72 hrs by qRT-PCR analysis. The format is functional, cell-based. The settings on record: Huh-7, 72 h. (In qPCR the cycle at which signal appears reflects the starting amount.)
A short description of assay [4]: Inhibition of recombinant His-tagged Norovirus 3C-like protease for 45 mins followed by addition of 30 uM EDANS-EPDFHLQGPEDLAK-Dabcyl substrate by FRET assay.
Assay [5] relates to Norovirus. The assay is described as follows: Antiviral activity against Norovirus infected in HG23 cells assessed as decrease in viral RNA level by qRT-PCR analysis. The format is functional, cell-based.

A word on the EC50: it is the midpoint of the concentration-response curve. In assay [1], `Cc1ccc(C(=O)Nc2ccc(S(=O)(=O)O)c3cccc(S(=O)(=O)O)c23)cc1NC(=O)c1cccc(NC(=O)Nc2cccc(C(=O)Nc3cc(C(=O)Nc4ccc(S(=O)(=O)O)c5cccc(S(=O)(=O)O)c45)ccc3C)c2)c1` showed an EC50 of 28 nM.
For the molecule `CCOC(=O)/C=C/[C@H](C[C@@H]1CCNC1=O)NC(=O)[C@@H](CC(=O)[C@@H](NC(=O)c1cc(C)on1)C(C)C)Cc1ccc(F)cc1` [RUPINTRIVIR], in assay [2], the EC50 amounted to 23 nM.
Consider `Cc1nc(-c2ccccc2)sc1C(=O)Nc1sc2c(c1C#N)CCC2`, for which the EC50 in assay [3] was 30100 nM.
As to `CC(C)C[C@H](NC(=O)OCc1ccccc1)C(=O)N[C@@H](Cc1ccccc1)C(=O)N[C@H](C=O)CCC(=O)N1CCCC1` (Cbz-Leu-Phe-Glu(Pyrrolidide)-aldehyde), the EC50 in assay [4] turned out to be 75 nM.
Take `Cc1ccc(C(=O)Nc2ccc(S(=O)(=O)O)c3cc(S(=O)(=O)O)cc(S(=O)(=O)O)c23)cc1NC(=O)c1cccc(NC(=O)Nc2cccc(C(=O)Nc3cc(C(=O)Nc4ccc(S(=O)(=O)O)c5cc(S(=O)(=O)O)cc(S(=O)(=O)O)c45)ccc3C)c2)c1` [SURAMIN HEXASODIUM]: the EC50 in assay [1] amounted to 27 nM.
With `C[C@@]1(O)[C@H](O)[C@@H](CO)O[C@H]1n1ccc(N)nc1=O`, the concentration giving a half-maximal response (EC50) in assay [5] was 18000 nM.
